The values that follow come from patent US20250017927A1, “PHARMACEUTICAL COMPOSITION AND USE THEREOF” (SHANGHAI ALLIST PHARMACEUTICALS CO., LTD., priority 2021, published 2025).

The subject of one series is Ba/F3 EGFR L861Q. Description: Proliferation inhibition, CellTiter Glo, Ba/F3 EGFR L861Q. Format: cell-based, mouse. The note with it: for IC50: Mus musculus, Ba/F3 EGFR L861Q stably transfected cells, 72 hours. From the text:
(§1) The proliferation inhibition activity of the compound (furmonertinib mesilate) on four cells of Ba/F3 EGFR G719S, Ba/F3 EGFR G724S, Ba/F3 EGFR S768I, and Ba/F3 EGFR L861Q stably expressing EGFR rare mutation proteins, one cell of Ba/F3 EGFR G719S/T263P stably expressing EGFR double mutation proteins, and three cells of Ba/F3 ERBB2 A775_G776insYVMA, Ba/F3 ERBB2 V777_G778insGC, and Ba/F3 ERBB2 P780_Y781insGSP stably expressing different ERBB2 exon 20 insertion mutation proteins in mouse pro-B cells Ba/F3 in vitro was determined by the CellTiter Glo method.
(§2) Cell source: Ba/F3 EGFR G719S, Ba/F3 EGFR G724S, Ba/F3 EGFR S768I, Ba/F3 EGFR L861Q, Ba/F3 EGFR G719S/T263P, Ba/F3 ERBB2 A775_G776insYVMA, Ba/F3 ERBB2 V777_G778insGC, Ba/F3 ERBB2 P780_Y781insGSP cells were provided by KYinno Biotechnology (Beijing) Co., Ltd.
(§3) Ba/F3 EGFR G719S, Ba/F3 EGFR G724S, Ba/F3 EGFR S768I, Ba/F3 EGFR L861Q, Ba/F3 EGFR G719S/T263P, Ba/F3 ERBB2 A775_G776insYVMA, Ba/F3 ERBB2 V777_G778insGC, Ba/F3 ERBB2 P780_Y781insGSP cells were cultivated in RPMI1640 complete culture medium containing 10% fetal bovine serum. […]
(§4) The CellTiter-Glo reagent (a luciferase ATP bioluminescence detection reagent, commercially available from Promega) was thawed, the 96-well plates inoculated with the cells were taken out from the CO2 constant temperature incubator, and equilibrated to room temperature (about 30 minutes), 100 μL CellTiter-Glo reagent was added to each well, the cells were lyzed by shaking on an orbital shaker for 5 minutes, […] at room temperature for 20 minutes to wait for the luminescence intensity to stabilize, then the luminescence intensity (Lum) was determined with a microplate reader. The cell survival rate at each concentration of the compound was calculated.
(§5) The data were analyzed using GraphPad Prism 7.0 software, fitted with nonlinear S-curve regression to give a dose-effect curve, and IC50 values were calculated therefrom, as shown in Table 1.
A general note: Cellular ATP, detected with luciferase, serves as a proxy for viable cell number.

The subject of a further series is Ba/F3 EGFR S768I. Description: Proliferation inhibition, CellTiter Glo, Ba/F3 EGFR S768I. It counts as cell-based, mouse. The note with it: for IC50: Mus musculus, Ba/F3 EGFR S768I stably transfected cells, 72 hours.
Source text: as §1, §2, §3, §4, §5

In series [1] the test system is Ba/F3 ERBB2 A775_G776insYVMA subcutaneous xenograft. Description: Anti-tumor effect in Ba/F3 ERBB2 A775_G776insYVMA CDX tumor model. The conditions noted are these: 30 mg/kg oral once per day for two weeks.
Source text: Experimental animals: BALB/c nude mice, female, 8-9 weeks (mouse week-old when tumor cells were inoculated), and weighing 13.7-17.7 g, purchased from the Shanghai branch of Beijing Vital River Laboratory Animal Technology Co., Ltd.
Animal modeling and random grouping: Ba/F3 ERBB2 A775_G776insYVMA cells were cultivated, amplified to two T175 cm^2 culture flasks, cells were collected, and resuspended and counted in serum-free medium DMEM with the addition of a matrix gel at 1:1, and inoculated at 2×10^6 cells/0.1 mL in Balb/c nude mouse right front scapular subcutaneous. When the average tumor volume was about 160 mm^3, the animals were randomly grouped into three experiment groups according to the tumor size. Each group contained 6 mice. The grouping day was defined as Day 0, i.e., DO.
The experimental scheme: BALB/c nude mice were subcutaneously inoculated with Ba/F3 ERBB2 A775_G776insYVMA cells, and a cell line heterograft tumor model was established. The experiment was divided into 30 mg/kg group of AZD9291, 30 mg/kg group of furmonertinib mesilate and a vehicle control group, wherein each group contained 6 animals, orally administered with the administration volume of 10 uL/g, and the vehicle control group was administered with the same amount of vehicle, the administration was carried out once per day and lasted for two weeks. During the whole experiment, the body weight and the tumor sizes of the mice were measured twice each week, and whether or not the presence of toxic reactions was observed.
Tumor Volume (TV) was calculated by: TV=½×a×b×b, where a and b represented the length and the width of tumor, respectively.
The subject of series [2] is Ba/F3 ERBB2 A775_G776insYVMA. Description: Proliferation inhibition, CellTiter Glo, Ba/F3 ERBB2 A775_G776insYVMA. It counts as cell-based, mouse. The conditions noted are these: for IC50: Mus musculus, BaF3, Ba/F3 ERBB2 A775_G776insYVMA stably transfected cells, 72 hours.
Source text: as §1, §2, §3, §4, §5

A further series relates to Ba/F3 EGFR G719S/T263P. Description: Proliferation inhibition, CellTiter Glo, Ba/F3 EGFR G719S/T263P. The conditions noted are these: for IC50: Mus musculus, Ba/F3 EGFR G719S/T263P stably transfected cells, 72 hours. It counts as cell-based, mouse.
Source text: as §1, §2, §3, §4, §5

In series [3] the test system is Ba/F3 ERBB2 P780_Y781insGSP. Description: Proliferation inhibition, CellTiter Glo, Ba/F3 ERBB2 P780_Y781insGSP. The conditions noted are these: for IC50: Mus musculus, BaF3, Ba/F3 ERBB2 P780_Y781insGSP stably transfected cells, 72 hours. It counts as cell-based, mouse.
Source text: as §1, §2, §3, §4, §5

For series [4] the following is noted: orally once per day, 20 mg-240 mg; cited from earlier work.
A further series relates to Ba/F3 EGFR G724S. Description: Proliferation inhibition, CellTiter Glo, Ba/F3 EGFR G724S. It counts as cell-based, mouse. The note with it: for IC50: Mus musculus, Ba/F3 EGFR G724S stably transfected cells, 72 hours.
Source text: as §1, §2, §3, §4, §5

Series [5] deals with Ba/F3 ERBB2 V777_G778insGC xenograft. Description: Anti-tumor effect in Ba/F3 ERBB2 V777_G778insGC (KC-1410) cell xenograft model. It counts as in vivo. The conditions noted are these: for anti-tumor activity: B-NDG mice. The source says: This study was used for evaluate the anti-tumor efficacy of three compounds alone in the female (B-NDG) immune deficiency mice bearing tumors of Ba/F3 ERBB2 V777_G778insGC engineered cells.
Experimental animals: B-NDG mice, female, 6-8 weeks, and weighing 18-20 g.
Animal modeling and random grouping: Ba/F3 ERBB2 V777_G778insGC cells were cultivated, cells were collected, and re-suspended and counted in serum-free medium, the re-suspended cells with the addition of a matrigel at 1:1 were subcutaneous inoculated at 1×10^6 cells/0.1 mL in B-NDG mice. When the average tumor volume was about 80-120 mm^3, the animals were randomly grouped into four experiment groups according to the tumor size. Each group contained 12 mice.
The experimental scheme: B-NDG mice were subcutaneously inoculated with Ba/F3 ERBB2 V777_G778insGC cells to establish a cell-line-derived xenograft model.
The curves for the tumor volume change of four experimental groups were shown in FIG. 3, and the curves for the body weight change of four experimental groups were shown in FIG. 4.

The subject of series [6] is EGFR T790M positive advanced non-small cell lung cancer. The conditions noted are these: oral 80 mg daily dose, patients with progressive disease after prior systematic anti-tumor therapy; cited from earlier work.
Series [7] concerns Ba/F3 ERBB2 V777_G778insGC. Description: Proliferation inhibition, CellTiter Glo, Ba/F3 ERBB2 V777_G778insGC. Format: cell-based, mouse. The note with it: for IC50: Mus musculus, BaF3, Ba/F3 ERBB2 V777_G778insGC stably transfected cells, 72 hours.
Source text: as §1, §2, §3, §4, §5

The next series concerns Ba/F3 EGFR G719S. Description: Proliferation inhibition, CellTiter Glo, Ba/F3 EGFR G719S. The conditions noted are these: for IC50: Mus musculus, Ba/F3 EGFR G719S stably transfected cells, 72 hours. It counts as cell-based, mouse.
Source text: as §1, §2, §3, §4, §5

`C=CC(=O)Nc1cc(Nc2nccc(-c3cn(C)c4ccccc34)n2)c(OCC(F)(F)F)nc1N(C)CCN(C)C` [furmonertinib mesilate, N-{2-{[2-(dimethylamino)ethyl](methyl)amino}-6-(2,2,2-trifluoroethoxy)-5-{[4-(1-methyl-1H-indol-3-yl)pyrimidin-2-yl]amino}pyridin-3-yl}acrylamide]: the proliferation inhibition activity result is “good proliferation inhibition activity” in the series on Ba/F3 EGFR L861Q (Ba/F3 EGFR L861Q, result in words); “good proliferation inhibition activity” in the series with Ba/F3 EGFR S768I (Ba/F3 EGFR S768I, result in words); “good proliferation inhibition activity” in series [2] (Ba/F3 ERBB2 A775_G776insYVMA, result in words); “good proliferation inhibition activity” in the series with Ba/F3 EGFR G719S/T263P (Ba/F3 EGFR G719S/T263P, result in words); “good proliferation inhibition activity” in [3] (Ba/F3 ERBB2 P780_Y781insGSP, result in words); “good proliferation inhibition activity” in the series with Ba/F3 EGFR G724S (Ba/F3 EGFR G724S, result in words). Also, the proliferation inhibition activity entry in series [7] (Ba/F3 ERBB2 V777_G778insGC, result in words) was “good proliferation inhibition activity”; in the series with Ba/F3 EGFR G719S (Ba/F3 EGFR G719S, result in words), “good proliferation inhibition activity”. The concentration for half-maximal inhibition (IC50) (commonly the concentration at which inhibition is half-maximal) in the series with Ba/F3 EGFR L861Q amounted to 13 nM; in the series with Ba/F3 EGFR S768I, 33 nM; in series [2], 118 nM; with Ba/F3 EGFR G719S/T263P it was 37 nM; in [3], 33 nM; in the series with Ba/F3 EGFR G724S it was 35 nM. The IC50 in series [7] came out at 25 nM; in the series on Ba/F3 EGFR G719S it was 19 nM. Moreover, the “effect on the body weight of nude mice” value in series [1] is “less effect on the body weight”. Besides, the safety entry in series [1] is listed as “better safety”; in [5] (15, 30 and 50 mg/kg groups), “good safety”. Besides, the figures for the anti-tumor effect entry in series [1] (BALB/c female nude mice) and in series [6] were “good anti-tumor effect” and “relatively good anti-tumor effect”, respectively. In addition, the “adverse events of subjects” value in series [4] is “mild or moderate”. In addition, the dose-limiting toxicity result in [4] is “does not occur”. For the same compound, in [4], the dose-related toxic reaction entry was “does not occur”. In series [4], the tolerance and safety entry is given as “good”. For the same compound, the values for the anti-tumor activity result in [5] (15 mg/kg oral once per day for two weeks), in series [5] (30 mg/kg oral once per day for two weeks) and in [5] (50 mg/kg oral once per day for two weeks) were “moderate anti-tumor activity”, “extremely significant anti-tumor activity” and “extremely significant anti-tumor activity”, respectively. Moreover, the “effect on the body weight of mice” value in [5] (15, 30 and 50 mg/kg groups) is recorded as “little effect on the body weight”.

`C=CC(=O)Nc1cc(Nc2nccc(-c3cn(C)c4ccccc34)n2)c(OC)cc1N(C)CCN(C)C` [AZD9291, reference compound]: the IC50 in the series on Ba/F3 EGFR L861Q amounted to 41 nM; in the series with Ba/F3 EGFR S768I it was 137 nM; in series [2], 489 nM; with Ba/F3 EGFR G719S/T263P, 191 nM; in series [3] it was 96 nM; in the series with Ba/F3 EGFR G724S, 139 nM. The values for the IC50 (in [7]; in the series on Ba/F3 EGFR G719S) were 77 nM and 68 nM, respectively.
